The text below walks through data of PubChem BioAssay (NCI).

Molecules are shown by their SMILES. Several values for one entry are separate records, joined by “and”; a condition that tells them apart may be missing. Identical values can stand only once.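 All cell lines were grown in 96-well plates and treated with compound for 48 hours. GI50 marks 50% less growth. TGI is the concentration that stops growth completely.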

Some test systems named below: 786-0 renal; HS 578T breast; LOX IMVI melanoma; MCF7 breast; NCI-H226 lung; NCI-H23 lung; NCI-H522 lung; SF-539 CNS; SW-620 colon; TK-10 renal.
Assay in all cases: inhibition of tumour cell growth, NCI panel, 48 h

For `COc1cc2c(cc1[N+](=O)[O-])C(=O)C(Br)(Br)CCC2`, the TGI worked out at 2.73 µM in the assay on 786-0 renal; 23.2 µM with HS 578T breast; 1.97 µM with LOX IMVI melanoma; 5.33 µM in the assay with MCF7 breast; 10.7 µM in the assay on NCI-H226 lung; 8.59 µM with NCI-H23 lung. Also, the TGI in the assay with NCI-H522 lung was found to be 2.37 µM; with SF-539 CNS it was 3.87 µM; in the assay with SW-620 colon, 3.99 µM; in the assay with TK-10 renal, 9.72 µM.

Regarding `CCCCCCCCCC[C@H](O)[C@H]1CC[C@@H]([C@@H](O)CC[C@H](O)[C@@H]2CCC(CCCCCCC[C@@H](O)CC3=C[C@H](C)OC3=O)O2)O1` (some centres undefined), the GI50 in the assay with 786-0 renal was 4.9 µM; with LOX IMVI melanoma, 0.0764 µM; in the assay on MCF7 breast it was 3 µM; in the assay with NCI-H226 lung it was 8.54 µM; with SF-539 CNS it was 4.33 µM; with SW-620 colon it was 4.8 µM. Besides, in the assay with TK-10 renal, the GI50 is 4.26 µM. Further, the TGI is 3.64 µM and 20.7 µM with 786-0 renal; 4.86 µM with HS 578T breast; 2.18 µM and 10 µM with LOX IMVI melanoma; 9.6 µM and 22.9 µM in the assay on MCF7 breast; 6.43 µM and 36 µM with NCI-H226 lung; 3.68 µM and 19.2 µM in the assay on NCI-H23 lung. The TGI with NCI-H522 lung was 18 µM; with SF-539 CNS it was 3.86 µM and 25.8 µM; in the assay on TK-10 renal it was 20.9 µM.

Turning to `CC1[C@@H]2CC=C3[C@H]4CCC5Cc6nc7c(nc6C[C@@]5(C)C4CC(=O)[C@]32CO[C@]12OC(C)(C)CC2O)CC1CC[C@@H]2C3=C[C@H]4O[C@@]5(O[C@@](C)(CO)C[C@@H]5O)C(C)[C@@]4(O)[C@]3(C)[C@@H](O)CC2[C@]1(C)C7` (some centres undefined), the GI50 is 0.000168 µM with 786-0 renal; 0.000112 µM with HS 578T breast; 0.000361 µM and 0.000576 µM with LOX IMVI melanoma; 0.000482 µM and 0.00142 µM in the assay with MCF7 breast; 0.00281 µM in the assay on NCI-H23 lung; 0.0131 µM with NCI-H522 lung. Moreover, the GI50 in the assay on SF-539 CNS is 0.00016 µM and 0.000365 µM; with SW-620 colon it was 0.000982 µM and 0.00204 µM. Further, the TGI in the assay with 786-0 renal was 0.0303 µM; with HS 578T breast, 0.00137 µM; in the assay on NCI-H226 lung it was 0.0901 µM and 0.103 µM; in the assay on NCI-H23 lung, 0.275 µM and 0.0672 µM; in the assay with SW-620 colon, 0.0262 µM and 0.0526 µM; in the assay on TK-10 renal, 0.576 µM.

`CC(=O)Nc1cc2c3c(cccc3c1)-c1ccccc1-2`: the GI50 is 14.2 µM in the assay on 786-0 renal; 29.3 µM with HS 578T breast; 38.9 µM with LOX IMVI melanoma; > 100 µM in the assay with MCF7 breast; 37.8 µM in the assay with NCI-H226 lung; 38.5 µM with NCI-H23 lung. The GI50 with NCI-H522 lung is > 100 µM; with SF-539 CNS, > 100 µM; with SW-620 colon, 95.6 µM; with TK-10 renal it was 18.1 µM. In addition, the TGI in the assay on 786-0 renal is 40 µM; with HS 578T breast, 94.6 µM; in the assay with LOX IMVI melanoma, > 100 µM; with MCF7 breast, > 100 µM; with NCI-H226 lung, > 100 µM; with NCI-H23 lung it was > 100 µM. Further, the TGI in the assay on NCI-H522 lung is > 100 µM; in the assay on SF-539 CNS it was > 100 µM; with SW-620 colon it was > 100 µM; in the assay on TK-10 renal, 32.5 µM.

Consider `Cc1[nH]nc(C(=O)N/N=C/c2ccccc2Cl)c1N=NN(C)C`, for which the TGI in the assay on 786-0 renal was > 100 µM; with HS 578T breast, > 61.9 µM; with LOX IMVI melanoma, > 100 µM; in the assay on MCF7 breast it was > 100 µM; with NCI-H226 lung, > 100 µM; in the assay with NCI-H23 lung, > 100 µM. In addition, the TGI was > 100 µM with NCI-H522 lung, > 29.9 µM in the assay with SF-539 CNS, > 100 µM in the assay with SW-620 colon and > 100 µM with TK-10 renal.

With `Nc1n[nH]c2ccc([C@@H]3Nc4ccc5cn[nH]c5c4[C@H]4C5CCC(C5)[C@@H]34)cc12` (some centres undefined), the GI50 in the assay with 786-0 renal is 0.95 µM; in the assay on HS 578T breast, 0.389 µM; in the assay on LOX IMVI melanoma, 0.567 µM; in the assay on MCF7 breast, 0.347 µM; in the assay with NCI-H226 lung it was 0.977 µM; in the assay on NCI-H23 lung, 0.453 µM. Moreover, the GI50 in the assay with NCI-H522 lung was 0.385 µM; in the assay on SF-539 CNS it was 0.299 µM; in the assay on SW-620 colon it was 0.401 µM; in the assay on TK-10 renal, 15.1 µM. For the same molecule, the TGI is 98.6 µM in the assay with 786-0 renal; > 100 µM with HS 578T breast; > 81.2 µM in the assay on LOX IMVI melanoma; > 76.8 µM in the assay with MCF7 breast; 50 µM in the assay with NCI-H226 lung; 38.5 µM in the assay with NCI-H23 lung. Besides, the TGI was 54.6 µM with NCI-H522 lung, 3.38 µM with SF-539 CNS, > 100 µM in the assay with SW-620 colon and > 100 µM with TK-10 renal.

For the molecule `CC(=O)ON=C1C=CC(=C(C#N)c2ccccc2)C=C1`, the GI50 in the assay on 786-0 renal is 1.19 µM; in the assay on HS 578T breast it was 3.51 µM; in the assay on LOX IMVI melanoma, 0.393 µM; with MCF7 breast it was 0.319 µM; in the assay with NCI-H226 lung, 2.88 µM; with NCI-H23 lung it was 4.71 µM. Moreover, the GI50 is 0.383 µM with NCI-H522 lung, 0.671 µM in the assay with SF-539 CNS, 0.452 µM in the assay on SW-620 colon and 2.58 µM with TK-10 renal. In addition, the TGI is 14.1 µM in the assay with 786-0 renal; > 31.3 µM with HS 578T breast; 5.58 µM with LOX IMVI melanoma; 12.8 µM with MCF7 breast; 9.36 µM with NCI-H226 lung; > 47.4 µM with NCI-H23 lung. Moreover, the TGI was 2.48 µM in the assay on NCI-H522 lung, 11.2 µM in the assay on SF-539 CNS, 7.76 µM in the assay on SW-620 colon and 9.9 µM with TK-10 renal.

As for `O=C(/C=C/C=C/c1ccc2c(c1)OCO2)N/N=C\c1ccc(O)cc1O`, the GI50 with 786-0 renal was 2.89 µM; in the assay on HS 578T breast, 2.29 µM; in the assay on LOX IMVI melanoma, 1.18 µM; with MCF7 breast it was 2.6 µM; in the assay on NCI-H226 lung, 2.78 µM; in the assay with NCI-H23 lung it was 2.11 µM. Also, the GI50 is 2.9 µM in the assay with NCI-H522 lung, 2.7 µM in the assay with SF-539 CNS, 2.83 µM in the assay with SW-620 colon and 2.95 µM with TK-10 renal. Further, the TGI in the assay on 786-0 renal was 11.8 µM; in the assay on HS 578T breast, 8.15 µM; in the assay with LOX IMVI melanoma, 10.1 µM; in the assay on MCF7 breast, 13.7 µM; with NCI-H226 lung it was 11.3 µM; in the assay on NCI-H23 lung, 10.6 µM. The TGI in the assay on NCI-H522 lung was determined as 15.3 µM; in the assay on SF-539 CNS, 11.6 µM; with SW-620 colon, 19.9 µM; in the assay on TK-10 renal, 33 µM.

As to `C[C@]12CC[C@@H]3c4ccc(OC(=O)N(CCCl)CCCl)cc4CC[C@H]3[C@@H]1CC[C@@H]2OP(=O)(O)O`, the GI50 was 43.9 µM with 786-0 renal; 26.7 µM in the assay with HS 578T breast; 46.2 µM in the assay on LOX IMVI melanoma; > 100 µM in the assay on MCF7 breast; 43.7 µM in the assay with NCI-H226 lung; 38.4 µM in the assay with NCI-H23 lung. The GI50 with NCI-H522 lung is 28.8 µM; in the assay with SF-539 CNS, 22.3 µM; with SW-620 colon it was > 80.7 µM; with TK-10 renal, > 38.3 µM. Also, the TGI in the assay on 786-0 renal was > 100 µM; with HS 578T breast, > 76.9 µM; with LOX IMVI melanoma it was > 100 µM; in the assay on MCF7 breast, > 100 µM; in the assay with NCI-H226 lung it was > 100 µM; in the assay with NCI-H23 lung it was > 100 µM. For the same molecule, the TGI is > 71.5 µM in the assay on NCI-H522 lung, > 58.1 µM in the assay on SF-539 CNS, > 100 µM in the assay on SW-620 colon and > 100 µM with TK-10 renal.

Turning to `COC(=O)Nc1nc2ccc(C(=O)c3ccc(F)cc3)cc2[nH]1`, the GI50 in the assay on 786-0 renal is 0.578 µM; in the assay on HS 578T breast, 0.146 µM; in the assay with LOX IMVI melanoma, 0.762 µM; with MCF7 breast, 0.0867 µM; with NCI-H226 lung, 0.464 µM; with NCI-H23 lung, 1.12 µM. Also, the GI50 with NCI-H522 lung is 0.311 µM; in the assay on SF-539 CNS, 0.242 µM; with SW-620 colon it was 0.0922 µM; in the assay with TK-10 renal, 1.72 µM. For the same molecule, the TGI in the assay with 786-0 renal was 7.83 µM; in the assay on HS 578T breast, 0.502 µM; with LOX IMVI melanoma, > 100 µM; in the assay on MCF7 breast it was > 100 µM; with NCI-H226 lung, 3.23 µM; in the assay on NCI-H23 lung it was 56.2 µM. In addition, the TGI was 0.778 µM in the assay on SF-539 CNS, > 100 µM in the assay on SW-620 colon and 58.3 µM with TK-10 renal.

For the molecule `COc1cc(C(=O)NN=C2c3ccccc3-c3ccccc32)cc(OC)c1OC`, the GI50 in the assay with 786-0 renal is 6.86 µM; with HS 578T breast, 3.5 µM; in the assay with LOX IMVI melanoma, 2.78 µM; with MCF7 breast, 2.28 µM; in the assay on NCI-H226 lung, 14.8 µM; in the assay on NCI-H23 lung, 3.94 µM. In addition, the GI50 was 1.77 µM in the assay with NCI-H522 lung, 2.1 µM in the assay on SF-539 CNS, 2.53 µM in the assay with SW-620 colon and 7.86 µM with TK-10 renal. The TGI is 31.3 µM in the assay with 786-0 renal; 26.3 µM with HS 578T breast; 49.4 µM in the assay with LOX IMVI melanoma; > 100 µM with MCF7 breast; 73.9 µM with NCI-H226 lung; 41.4 µM with NCI-H23 lung. Further, the TGI was 5.8 µM with NCI-H522 lung, 5.32 µM with SF-539 CNS, > 100 µM with SW-620 colon and 32.6 µM in the assay with TK-10 renal.

For `O=C(Nc1cccc(-n2cc(-c3ccncc3)c(-c3ccc(Cl)c(O)c3)n2)c1)Nc1ccc(Cl)c(Cl)c1`, the GI50 in the assay with 786-0 renal is 7.22 µM; with HS 578T breast it was 0.785 µM; with LOX IMVI melanoma, 0.939 µM; in the assay with MCF7 breast, 1.06 µM; in the assay on NCI-H226 lung, 1.51 µM; in the assay on NCI-H23 lung it was 1.22 µM. Moreover, the GI50 in the assay on NCI-H522 lung was 1.19 µM; in the assay with SF-539 CNS, 1.34 µM; in the assay on SW-620 colon, 1.46 µM; in the assay with TK-10 renal, 1.91 µM. For the same molecule, the TGI is > 32.5 µM with 786-0 renal; 3.15 µM with HS 578T breast; 3.57 µM in the assay on LOX IMVI melanoma; > 32.5 µM in the assay on MCF7 breast; > 32.5 µM in the assay on NCI-H226 lung; 29.1 µM in the assay on NCI-H23 lung. In addition, the TGI was 10.6 µM in the assay with NCI-H522 lung, 8.97 µM in the assay with SF-539 CNS, > 32.5 µM with SW-620 colon and > 32.5 µM in the assay on TK-10 renal.
